Laboratory results taken from patent publication US9181182B2, “S1P receptors modulators” (Akaal Pharma PTY LTD, priority 2008, dated 2015).
Where a name gives a salt, the structure may show the parent alone.

Experiments:
[1] = tested on: Human promyelocytic leukemia (HL-60) cells; experiment: Cell viability (growth inhibition) assay, MTS; type: cell-based; settings: 50% reduction in cell viability of HL-60 cells, 48 hr incubation
Experimental: In order to measure the apoptotic effect of compounds on the metabolic activity of viable cells, the following assay was performed on Human promyelocytic leukemia cells. The assay utilises the tetrazolium compound (3-(4,5-dimethylthiazol-2-yl)-5-(3-carboxymethoxyphenyl)-2-(4-sulfophenyl)-2H-tetrazolium, inner salt; (MTS) and an electron coupling reagent (phenazine methosulfate; (PMS). MTS is bioreduced by cells into a formazan product the optical absorbance of which is measured directly from 96 well assay plates. The conversion of MTS into aqueous, soluble formazan is accomplished by dehydrogenase enzymes found in metabolically active cells. The quantity of formazan product as measured by the amount of 490 nm absorbance is directly proportional to the number of living cells in culture.
The assay was based on the National Cancer Institute (NCI) protocol, briefly, cells were grown in RPMI 1640 media supplemented with 10% FCS (foetal calf serum) and kept at 37° C. in a humidified environment with 5% CO2.
For the growth inhibition assay, Human promyelocytic leukemia (HL-60) cells were seeded at a density of 10,000 cells per well in 96 well plates in a volume of 100 μl and allowed to grow for 24 h. Compounds were serially diluted in DMSO at concentrations 100 fold higher than used in the assay (100×). Compounds were freshly prepared for each experiment. The 100× stocks were then diluted to 2× stocks into media and immediately, 100 μl of this 2× stock was added to the cells to create the desired final concentration of drug with a DMSO concentration of 1%. One row of each 96 well plate was treated with DMSO alone as a control. Cells were then incubated for a further 48 hr. Metabolic activity was determined using MTS (Promega) (90% 1.6 mg/ml MTS, 10% 1.6 mg/ml PMS (phenazine methosulfate) made fresh in PBS). 50 μl of this mix was added to all wells of the plates and allowed to incubate for 1.5-2 hr. Plates were shaken gently for about 15 min and absorbance was read on a plate reader at 490 nm. Averages were taken of the readings at each point with standard deviation and plotted using MicroCal Origin.

S1P1 human receptor = S1P1 human receptor (Homo sapiens (Human), UniProt P21453); experiment: S1P1 [35S]-GTPgamaS binding assay (agonist activity); type: biochemical; settings: for EC50S1P1/EC50S1P: potency at S1P1 relative to S1P; for EC50: GTPgamaS binding, agonist; for Efficacy (% of maximum): S1P1, relative to reference agonist S1P
S1P1 human receptor, sequence (P21453 whole entry): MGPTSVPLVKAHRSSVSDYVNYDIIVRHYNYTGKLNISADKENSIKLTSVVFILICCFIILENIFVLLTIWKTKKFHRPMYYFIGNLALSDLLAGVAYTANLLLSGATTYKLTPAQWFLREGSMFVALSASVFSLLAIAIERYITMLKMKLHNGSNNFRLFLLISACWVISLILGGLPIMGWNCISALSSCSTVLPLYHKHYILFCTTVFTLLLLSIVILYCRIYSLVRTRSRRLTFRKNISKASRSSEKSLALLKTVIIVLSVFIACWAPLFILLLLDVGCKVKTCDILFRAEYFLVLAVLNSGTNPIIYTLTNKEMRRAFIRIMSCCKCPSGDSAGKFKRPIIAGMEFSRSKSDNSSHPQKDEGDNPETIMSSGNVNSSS
Experimental: Selected Compounds of the Examples were evaluated at Millipore Corporation, USA, using S1P1 receptor; [^35S]-GTPgamaS binding assay. A [^35S]-GTPgamaS binding assay at Millipore was conducted by GPCR Profiler™ Custom Service Laboratory, Temecula, Calif., Millipore, Inc. to monitor dose-dependent agonist selectivity for selected Examples against the S1P1 receptors. The assay was completed with sample compounds subjected to an eight-point, four-fold dose response curve with starting concentration of 10 μM. Selectivity was determined upon initial addition of compounds followed by a 30 minute incubation at 30° C. Following compound incubation, bounded [^35S]-GTPgamaS was determined by filtration and scintillation counting.
(§1) Independently, selected compounds were evaluated for S1P1 and S1P3 agonistic activity. The S1P1 assay system was GTPgama-S35 binding in membranes from CHO K1 cells, expressing S1P1 human receptor. The S1P3 assay system was calcium mobilization in CHO K1 cells expressing S1P3 human receptor. […] Compounds were tested initially at a concentration of 10 μM.

S1P3 human receptor = S1P3 human receptor (Homo sapiens (Human), UniProt Q99500); experiment: S1P3 calcium mobilization in CHO K1 cells; type: cell-based; settings: NA = Not Active
S1P3 human receptor, sequence (Q99500 whole entry): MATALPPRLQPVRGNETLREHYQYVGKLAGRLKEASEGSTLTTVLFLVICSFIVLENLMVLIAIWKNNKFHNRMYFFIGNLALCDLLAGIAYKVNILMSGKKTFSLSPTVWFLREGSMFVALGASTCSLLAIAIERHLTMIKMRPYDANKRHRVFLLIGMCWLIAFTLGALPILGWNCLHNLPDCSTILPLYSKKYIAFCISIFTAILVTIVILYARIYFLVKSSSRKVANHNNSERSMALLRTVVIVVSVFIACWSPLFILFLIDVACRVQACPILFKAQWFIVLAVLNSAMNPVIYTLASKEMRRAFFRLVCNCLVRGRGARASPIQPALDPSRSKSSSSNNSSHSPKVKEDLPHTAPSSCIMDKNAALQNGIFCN
Experimental: as §1

2-Amino-2-((5-(5-3-(1-admantyl)-3-methoxyphenyl)-1,2,4-oxadiazol-3-yl)indolin-1-yl)methyl)propane-1,3-diol [Example 33]
IC50 [1]: 2910 ± 130 nM
EC50S1P1/EC50S1P (S1P1 human receptor): >1000

NC(CO)(CO)CN1CCc2c(OCc3cc4c(Cl)cc(Cl)cc4o3)cccc21 [41(a), 2-Amino-2-((4-((4,6-dichlorobenzofuran-2-yl)methoxy)indolin-1-yl)methyl)propane-1,3-diol]
IC50 ([1]; Homo sapiens): 2550 ± 780 nM
EC50 (S1P1 human receptor): > 1360 nM
Efficacy (% of maximum) (S1P1 human receptor): 42%
EC50S1P1/EC50S1P (S1P1 human receptor): 144.46

CCCCCCCCc1ccc2c(c1)CN(CC(N)(CO)CO)C2 [Example 2, 2-Amino-2-((5-octylisoindolin-2-yl)methyl)propane-1,3-diol]
IC50 ([1]; Homo sapiens): 3480 ± 140 nM
EC50 (S1P1 human receptor): 1560 nM
Efficacy (% of maximum) (S1P1 human receptor): 91%
EC50S1P1/EC50S1P (S1P1 human receptor): 593

CCCCCCCCc1ccc2c(c1)CCN2CC(N)(CO)CO [Example 3, 2-Amino-2-((5-octylindolin-1-yl)methyl)propane-1,3-diol]
IC50 ([1]; Homo sapiens): 3700 ± 1020 nM
EC50 (S1P1 human receptor): 2110 nM
Efficacy (% of maximum) (S1P1 human receptor): 73%
EC50S1P1/EC50S1P (S1P1 human receptor): 709

COc1ccc(-c2nc(-c3ccc4c(c3)CCN4CC(N)(CO)CO)no2)cc1Cl [Example 7, 2-Amino-2-((5-(5-(3-chloro-4-methoxyphenyl)-1,2,4-oxadiazol-3-yl)indolin-1-yl)methyl)propane-1,3-diol]
IC50 ([1]; Homo sapiens): 3070 ± 460 nM
EC50 (S1P1 human receptor): 783 nM
Efficacy (% of maximum) (S1P1 human receptor): 109%
EC50S1P1/EC50S1P (S1P1 human receptor): 278

NC(CO)(CO)CN1CCc2cc(OCc3cc4c(Cl)cc(Cl)cc4o3)ccc21 [Example 8, 2-Amino-2-((5-((4,6-dichlorobenzofuran-2-yl)methoxy)indolin-1-yl)methyl) propane-1,3-diol]
IC50 ([1]; Homo sapiens): 1930 ± 580 nM
EC50 (S1P1 human receptor): 131 nM
Efficacy (% of maximum) (S1P1 human receptor): 85%
EC50S1P1/EC50S1P (S1P1 human receptor): 23

CCCCCCCCc1ccc2c(c1)CCCN2CC(N)(CO)CO [Example 9, 2-Amino-2-((6-octyl-3,4-dihydroquinolin-1(2H)-yl)methyl)propane-1,3-diol]
IC50 ([1]; Homo sapiens): 2460 ± 510 nM
EC50 (S1P1 human receptor): > 860 nM
EC50S1P1/EC50S1P (S1P1 human receptor): >1000

CCCCCCCCc1ccc2c(c1)CCN(CC(N)(CO)CO)C2 [Example 10, 2-Amino-2-((6-octyl-3,4-dihydroisoquinolin-2(1H)-yl)methyl)propane-1,3-diol]
IC50 ([1]; Homo sapiens): 1380 ± 170 nM
EC50 (S1P1 human receptor): > 510 nM
EC50S1P1/EC50S1P (S1P1 human receptor): >1000

CC1(C)C2CCC(CCOc3ccc(CCC(N)(CO)CO)cc3)C1C2.Cl (stereo not shown) [Example 23, 2-Amino-2-(4-(2-(6,6-dimethylbicyclo[3.1.1]heptan-2-yl)ethoxy)phenethyl) propane-1,3-diol hydrochloride salt]
IC50 ([1]; Homo sapiens): 2260 ± 680 nM
EC50 (S1P1 human receptor): 1240 nM
Efficacy (% of maximum) (S1P1 human receptor): 72%
EC50S1P1/EC50S1P (S1P1 human receptor): 419

COc1ccc(-c2nc(-c3ccc4c(c3)CCN4CC(N)(CO)CO)no2)cc1C12CC3CC(CC(C3)C1)C2 [Example 30]
IC50 [1]: 3190 ± 260 nM
EC50 (S1P1 human receptor): > 55400 nM
EC50S1P1/EC50S1P (S1P1 human receptor): >1000

CCOc1ccc(-c2nc(-c3cccc4c3ccn4CC(N)(CO)CO)no2)cc1OCC [Example 35, 2-Amino-2-((4-(5-(3,4-diethoxyphenyl)-1,2,4-oxadiazol-3-yl)-1H-indol-1-yl)methyl)propane-1,3-diol]
IC50 ([1]; Homo sapiens): 1700 ± 100 nM
EC50 (S1P1 human receptor): 54 nM
Efficacy (% of maximum) (S1P1 human receptor): 106%
EC50S1P1/EC50S1P (S1P1 human receptor): 4.75

NC(CO)(CO)CN1CCc2c(-c3noc(-c4ccc(-c5ccccc5C(F)(F)F)cc4)n3)cccc21 [Example 36, 2-Amino-2-((4-(5-(2′-(trifluoromethyl)biphenyl-4-yl)-1,2,4-oxadiazol-3-yl)indolin-1-yl)methyl)propane-1,3-diol]
IC50 ([1]; Homo sapiens): 1310 ± 350 nM
EC50 (S1P1 human receptor): 501 nM
Efficacy (% of maximum) (S1P1 human receptor): 99%
EC50S1P1/EC50S1P (S1P1 human receptor): 65

NC(CO)(CO)CN1CCc2cc(OCc3cccc(F)c3)ccc2C1 [Example 37, 2-Amino-2-((6-(3-fluorobenzyloxy)-3,4-dihydroisoquinolin-2(1H)-yl)methyl)propane-1,3-diol]
IC50 ([1]; Homo sapiens): 26900 ± 9160 nM

Cc1cc2cc(-c3nc(-c4cccc5c4CCN5CC(N)(CO)CO)no3)ccc2o1 [Example 42, 2-Amino-2-((4-(5-(2-methylbenzofuran-5-yl)-1,2,4-oxadiazol-3-yl)indolin-1-yl)methyl)propane-1,3-diol]
IC50 ([1]; Homo sapiens): 1700 ± 100 nM
EC50 (S1P1 human receptor): 1420 nM
Efficacy (% of maximum) (S1P1 human receptor): 92%
EC50S1P1/EC50S1P (S1P1 human receptor): 117.8

CCCOc1ccc(-c2nc(-c3cccc4c3CCN4CC(N)(CO)CO)no2)cc1OCCC [Example 43, 2-Amino-2-((4-(5-(3,4-di-propoxyphenyl)-1,2,4-oxadiazol-3-yl)indolin-1-yl)methyl)propane-1,3-diol]
EC50 (S1P1 human receptor): 18 nM
Efficacy (% of maximum) (S1P1 human receptor): 89%
EC50S1P1/EC50S1P (S1P1 human receptor): 2.22
EC50 (S1P3 human receptor): 3100 nM

CCOc1ccc(-c2nc(-c3cccc4c3ccn4CC(N)(CO)CO)no2)cc1Cl [Example 49, 2-Amino-2-((4-(5-(3-chloro-4-ethoxyphenyl)-1,2,4-oxadiazol-3-yl)-1H-indol-1-yl)methyl)propane-1,3-diol]
IC50 ([1]; Homo sapiens): 10200 nM
EC50 (S1P1 human receptor): 114 nM
Efficacy (% of maximum) (S1P1 human receptor): 112%
EC50S1P1/EC50S1P (S1P1 human receptor): 9.26

CCCOc1ccc(-c2nc(-c3cccc4c3CCN4CC(N)(CO)CO)no2)cc1Cl [Example 50, 2-Amino-2-((4-(5-(3-chloro-4-propoxyphenyl)-1,2,4-oxadiazol-3-yl)indolin-1-yl)methyl)propane-1,3-diol]
IC50 ([1]; Homo sapiens): 3000 ± 170 nM
EC50 (S1P1 human receptor): 17.9 nM
Efficacy (% of maximum) (S1P1 human receptor): 87%
EC50S1P1/EC50S1P (S1P1 human receptor): 1.3

NC(CO)(CO)CN1CCc2c(-c3noc(C45CC6CC(CC(C6)C4)C5)n3)cccc21 [Example 57, 2-Amino-2-((4-(5-(1-adamantyl)-1,2,4-oxadiazol-3-yl)indolin-1-yl)methyl) propane-1,3-diol]
IC50 ([1]; Homo sapiens): 1000 nM
Efficacy (% of maximum) (S1P1 human receptor): 82%
EC50S1P1/EC50S1P (S1P1 human receptor): 268.44

CCOc1ccc(-c2nc(-c3ccc(C4=CCN(CC(N)(CO)CO)CC4)cc3)no2)cc1OCC [Example 58, 2-Amino-2-((4-(4-(5-(3,4-diethoxyphenyl)-1,2,4-oxadiazol-3-yl)phenyl)-5,6-dihydropyridin-1(2H)-yl)methyl)propane-1,3-diol]
IC50 ([1]; Homo sapiens): 1700 nM
EC50 (S1P1 human receptor): > 2060 nM
Efficacy (% of maximum) (S1P1 human receptor): 60%
EC50S1P1/EC50S1P (S1P1 human receptor): 150

CC(C)Oc1ccc(CCN(C)CC(N)(CO)CO)cc1C12CC3CC(CC(C3)C1)C2 [Example 60, 2-Amino-2-(((3-(1-admantyl)-4-isopropoxyphenethyl)(methyl)amino)methyl)propane-1,3-diol]
IC50 [1]: 3300 ± 260 nM

CC(C)Oc1cc2c(cc1C13CC4CC(CC(C4)C1)C3)CN(CC(N)(CO)CO)CC2 [Example 61, 2-Amino-2-((7-(1-admantyl)-6-isopropoxy-3,4-dihydroisoquinolin-2(1H)-yl)methyl)propane-1,3-diol]
IC50 [1]: 3270 ± 120 nM

NC(CO)(CO)CN1CCC2CCCCC2C1 (stereo not shown) [Example 62, 2-Amino-2-((octahydroisoquinolin-2(1H)-yl)methyl)propane-1,3-diol]
IC50 ([1]; Homo sapiens): > 100000 nM

CCCCCCCCOc1ccc(CCC(N)(CO)CO)cc1C12CC3CC(CC(C3)C1)C2.Cl [Example 63, 2-Amino-2-(3-(1-admantyl)-4-(octyloxy)phenethyl)propane-1,3-diol hydrochloride salt]
IC50 [1]: 2400 ± 620 nM
EC50 (S1P1 human receptor): > 40000 nM
EC50S1P1/EC50S1P (S1P1 human receptor): 3188.66

NC(CO)(CO)CCc1ccc(-c2ccc(O)c(C34CC5CC(CC(C5)C3)C4)c2)cc1 [Example 64, 2-Amino-2-(2-(3′-(1-admantyl)-4′-hydroxybiphenyl-4-yl)ethyl)propane-1,3-diol hydrochloride salt]
IC50 [1]: 3440 ± 120 nM

CCCCCCCCc1ccc(CCC(N)(CO)CO)cc1 [FTY 720, 2-amino-2-(2-[4-octylphenyl]ethyl)-1,3-propanediol, reference compound]
IC50 ([1]; Homo sapiens): 3340 ± 190 nM
Efficacy (% of maximum) (S1P1 human receptor): 99%
